Test results from ChEMBL document CHEMBL6127118, “Identification of Oral Bioavailable Coumarin Derivatives as Potential AR Antagonists Targeting Prostate Cancer” (J Med Chem, 2024).

Columns and labels:
Androgen receptor = target: T1, Androgen receptor (Homo sapiens, UniProt P10275); assay: Antagonist activity at DHT-induced Androgen receptor in human LNCaP cells transfected with ARR2PB-eGFP incubated for 3 days; type: cell-based
T1 sequence (P10275 whole entry): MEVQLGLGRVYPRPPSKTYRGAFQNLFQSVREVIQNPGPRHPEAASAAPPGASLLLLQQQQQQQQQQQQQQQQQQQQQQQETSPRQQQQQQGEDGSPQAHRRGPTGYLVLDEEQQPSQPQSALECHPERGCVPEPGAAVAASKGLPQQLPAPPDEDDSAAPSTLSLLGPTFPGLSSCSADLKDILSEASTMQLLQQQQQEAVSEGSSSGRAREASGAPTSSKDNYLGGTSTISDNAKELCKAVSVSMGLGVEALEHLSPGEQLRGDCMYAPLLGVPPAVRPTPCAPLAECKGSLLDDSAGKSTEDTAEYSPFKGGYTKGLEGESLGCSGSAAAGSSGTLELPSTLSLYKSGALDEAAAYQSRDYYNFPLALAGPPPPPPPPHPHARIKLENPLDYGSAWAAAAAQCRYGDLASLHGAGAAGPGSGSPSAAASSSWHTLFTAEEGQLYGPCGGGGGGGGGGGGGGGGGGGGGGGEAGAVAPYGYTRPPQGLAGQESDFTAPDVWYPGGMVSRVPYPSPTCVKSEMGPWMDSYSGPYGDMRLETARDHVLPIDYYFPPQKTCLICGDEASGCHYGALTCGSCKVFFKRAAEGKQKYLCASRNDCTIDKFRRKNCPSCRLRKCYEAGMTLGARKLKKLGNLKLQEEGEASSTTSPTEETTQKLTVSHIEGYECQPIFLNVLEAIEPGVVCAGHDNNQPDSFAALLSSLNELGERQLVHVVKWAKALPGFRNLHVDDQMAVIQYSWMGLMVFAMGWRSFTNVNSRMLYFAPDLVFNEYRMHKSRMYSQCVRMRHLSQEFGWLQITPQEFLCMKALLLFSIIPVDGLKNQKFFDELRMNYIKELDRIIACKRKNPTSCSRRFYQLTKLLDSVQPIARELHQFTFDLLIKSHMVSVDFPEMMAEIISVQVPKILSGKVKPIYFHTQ

GES1 = assay: Antiproliferative activity against human GES1 cells incubated for 72 hrs by MTT assay; type: toxicity, cell-based; details: ges1, 72 h, time 72 hrs
[1] = AUC (0 to t) in Sprague-Dawley rat at 5 mg/kg, po; type: ADME, organism-based; details: in vivo
[2] = Clearance in Sprague-Dawley rat at 5 mg/kg, po; type: ADME, organism-based; details: in vivo
[3] = Apparent volume of distribution in Sprague-Dawley rat at 5 mg/kg, po; type: ADME, organism-based; details: in vivo
[4] = Cmax in Sprague-Dawley rat at 5 mg/kg, po; type: ADME, organism-based; details: in vivo
[5] = Half life in Sprague-Dawley rat at 5 mg/kg, po; type: ADME, organism-based; details: in vivo
[6] = Oral bioavailability in Sprague-Dawley rat at 5 mg/kg; type: ADME, organism-based; details: in vivo
[7] = AUC (0 to t) in Sprague-Dawley rat at 1 mg/kg, iv; type: ADME, organism-based; details: in vivo
[8] = Clearance in Sprague-Dawley rat at 1 mg/kg, iv; type: ADME, organism-based; details: in vivo
[9] = Apparent volume of distribution in Sprague-Dawley rat at 1 mg/kg, iv; type: ADME, organism-based; details: in vivo, read-out: Vz
[10] = Cmax in Sprague-Dawley rat at 1 mg/kg, iv; type: ADME, organism-based; details: in vivo
[11] = Half life in Sprague-Dawley rat at 1 mg/kg, iv; type: ADME, organism-based; details: in vivo
NIH3T3 = assay: Antiproliferative activity against mouse NIH3T3 cells incubated for 72 hrs by MTT assay; type: toxicity, cell-based; details: nih3t3, 72 h
[12] = Antiproliferative activity against human Chang liver cells incubated for 72 hrs by MTT assay; type: toxicity, cell-based

Question: Which IC50 (Androgen receptor) does the source give for `O=c1cc(C(F)(F)F)c2ccc(OCc3ccc(Br)cc3)cc2o1` here?
Answer: The IC50 was 590 nM.

Question: Which Activity (GES1) does the source give for `CN(Cc1ccc(Cl)cc1)c1ccc2c(C(F)(F)F)cc(=O)oc2c1` here?
Answer: The Activity was “Non-Toxic”.

Question: What about the AUC(0-t) [1] of the same molecule?
Answer: Its AUC(0-t) is 724 ng·h/mL.

Question: What about the CL/F [2] of the same molecule?
Answer: The CL/F was 68 mL/min/kg.

Question: What about the Vz [3] of the same molecule?
Answer: Its Vz is 112.33 L/kg.

Question: What about the Cmax [4] of the same molecule?
Answer: Its Cmax is 139 ng/mL.

Question: What about the half-life [5] of the same molecule?
Answer: Its half-life is 11.8 h.

Question: What about the bioavailability [6] of the same molecule?
Answer: Its bioavailability is 19.3%.

Question: And the AUC(0-t) [7]?
Answer: Its AUC(0-t) is 750 ng·h/mL.

Question: What about the clearance [8] of the same molecule?
Answer: The clearance was 16.3 mL/min/kg.

Question: What about the Vd [9] of the same molecule?
Answer: The Vd was 27.8 L/kg.

Question: What about the Cmax [10] of the same molecule?
Answer: Its Cmax is 809 ng/mL.

Question: What about the half-life [11] of the same molecule?
Answer: Its half-life is 19.8 h.

Question: What about the Activity (NIH3T3) of the same molecule?
Answer: Its Activity is “Non-Toxic”.

Question: What about the Activity [12] of the same molecule?
Answer: Its Activity is “Non-Toxic”.

Question: For `CCN(CC)c1cc2c(C(F)(F)F)cc(=O)oc2cc1OCc1ccc(Br)cc1`, which IC50 (Androgen receptor) is on record?
Answer: Its IC50 is > 10000 nM.

Question: Which IC50 (Androgen receptor) does the source give for `CCN(Cc1ccc(Cl)cc1)c1ccc2c(C(F)(F)F)cc(=O)oc2c1` here?
Answer: Its IC50 is 78 nM.

Question: With `O=c1cc(C(F)(F)F)c2cc(N3CCCC3)c(OCc3ccc(Br)cc3)cc2o1` as the molecule, how does the IC50 (Androgen receptor) read?
Answer: The IC50 was > 10000 nM.

Question: With `O=c1cc(C(F)(F)F)c2ccc(NCc3cc(F)ccc3F)cc2o1` as the molecule, how does the IC50 (Androgen receptor) read?
Answer: Its IC50 is 34 nM.

Question: For `CN(Cc1cc(F)ccc1F)c1ccc2c(C(F)(F)F)cc(=O)oc2c1`, which IC50 (Androgen receptor) is on record?
Answer: Its IC50 is 170 nM.

Question: For `Cc1ccc(CNc2ccc3c(C(F)(F)F)cc(=O)oc3c2)cc1F`, which IC50 (Androgen receptor) is on record?
Answer: Its IC50 is 73 nM.

Question: With `N#Cc1ccc(CNc2ccc3c(C(F)(F)F)cc(=O)oc3c2)cc1` as the molecule, how does the IC50 (Androgen receptor) read?
Answer: The IC50 was 890 nM.

Question: Which IC50 (Androgen receptor) does the source give for `CN(Cc1ccc(Br)cc1)c1ccc2c(C(F)(F)F)cc(=O)oc2c1` here?
Answer: The IC50 was 97 nM.

Question: For `CCN(Cc1ccc(Br)cc1)c1ccc2c(C(F)(F)F)cc(=O)oc2c1`, which IC50 (Androgen receptor) is on record?
Answer: Its IC50 is 100 nM.

Question: With `O=c1cc(C(F)(F)F)c2ccc(NCc3ccc(OC(F)F)cc3)cc2o1` as the molecule, how does the IC50 (Androgen receptor) read?
Answer: Its IC50 is 68 nM.

Question: For `O=c1cc(C(F)(F)F)c2ccc(NCc3ccc(CO)cc3)cc2o1`, which IC50 (Androgen receptor) is on record?
Answer: Its IC50 is 92 nM.

Question: For `O=c1cc(C(F)(F)F)c2ccc(NCc3cccc(Br)c3)cc2o1`, which IC50 (Androgen receptor) is on record?
Answer: The IC50 was 110 nM.
